For data set [1], the target named is [Pyruvate dehydrogenase (acetyl-transferring)] kinase isozyme 1, mitochondrial (Homo sapiens, UniProt Q15118). Put plainly: Inhibition of PDK1 (unknown origin) incubated for 30 mins in presence of ATP by kinase glo luminescent kinase assay.
A further data set deals with NB-4. Put plainly: Antiproliferative activity against human NB4 cells assessed as inhibition of cell growth incubated for 24 hrs by MTT assay. The settings on record: NB-4, 24 h. The class given is functional, cell-based. Background: Tetrazolium dyes change colour on reduction, which living cells bring about.
Data set [2] has as its system 4T1. As to the kind of experiment: Downregulation of c-myc expression in mouse 4T1 cells at 4 uM incubated for 24 hrs. It is filed as functional, cell-based.
Data set [3] deals with COS-7. As to the kind of experiment: Effect on phosphorylation of PDH expression at Serine 293 residues in African monkey COS7 cells at 12 uM measured after 24 hrs. As to conditions: Chlorocebus aethiops. It is filed as functional, cell-based.
Data set [4] relates to COS-7. Put plainly: Effect on PDK4 expression in African monkey COS7 cells at 12 uM measured after 24 hrs. It is filed as functional, cell-based. The settings on record: Chlorocebus aethiops.
Data set [5] has as its target [Pyruvate dehydrogenase (acetyl-transferring)] kinase isozyme 1, mitochondrial (Mus musculus) (UniProt Q8BFP9). As to the kind of experiment: Inhibition of PDK1 transcription in mouse 4T1 cells at 4 uM incubated for 24 hrs by qPCR analysis. The class given is cell-based. On the technique in general: Quantitative PCR measures a nucleic acid by following its amplification.

Data set [6] is described as follows: Toxicity in BALB/c mouse assessed as effect on liver at 0.15 to 1.5 mg/kg measured upto 16 days. The class given is organism-based. As to conditions: in vivo, 384 h, dose 0.15-1.5 mg/kg, time < 16 day.
A further data set concerns MOLM-13. As to the kind of experiment: Antiproliferative activity against human MOLM-13 cells assessed as inhibition of cell growth incubated for 24 hrs by MTT assay. The class given is functional, cell-based. As to conditions: MOLM-13, 24 h.
Data set [7] deals with COS-7. As to the kind of experiment: Effect on PHDC expression in African monkey COS7 cells at high concentration measured after 6 hrs. It is filed as functional, cell-based. As to conditions: Chlorocebus aethiops.
Data set [8] has as its system 4T1. As to the kind of experiment: Inhibition of glycolysis in mouse 4T1 cell lysates assessed as reduction in lactate production at 1 to 4 uM measured after 6 to 12 hrs. It is filed as functional, cell-based. As to conditions: dose 1-4 µM, time 6-12 hrs.
For data set [9], the system named is 4T1. Put plainly: Antiproliferative activity against mouse 4T1 cells assessed as inhibition of cell growth incubated for 24 hrs by MTT assay. It is filed as functional, cell-based. As to conditions: 4T1, 24 h.
Data set [10] relates to 4T1. As to the kind of experiment: Inhibition of PDK1 expression in mouse 4T1 cells at 4 uM incubated for 24 hrs by Western blot analysis. The class given is functional, cell-based. In general terms: Immunoblotting shows a protein as a band on a membrane.
Data set [11] is described as follows: Toxicity in BALB/c mouse assessed as effect on ALT level at 0.15 to 1.5 mg/kg measured upto 16 days. The settings on record: in vivo, 384 h, dose 0.15-1.5 mg/kg, time < 16 day. The class given is organism-based.
In data set [12] the test system is 4T1. Put plainly: Induction of apoptosis in mouse 4T1 cells assessed as increase in GSH content at 1 to 2 uM measured after 12 to 24 hrs. The class given is functional, cell-based. As to conditions: dose 1-2 µM, time 12-24 hrs.
The subject of data set [13] is 4T1. As to the kind of experiment: Recovery in mitochondrial function in mouse 4T1 cells assessed as increase in OCR/ECAR ratio. It is filed as functional, cell-based. The settings on record: dose 2-6 µM.
Data set [14] can be described thus: Toxicity in BALB/c mouse assessed as effect on kidney at 0.15 to 1.5 mg/kg measured upto 16 days. The class given is organism-based. The settings on record: in vivo, 384 h, dose 0.15-1.5 mg/kg, time < 16 day.
For data set [15], the system named is COS-7. As to the kind of experiment: Effect on PDK1 expression in African monkey COS7 cells at 12 uM measured after 24 hrs. The class given is functional, cell-based. As to conditions: Chlorocebus aethiops.

Active and inactive are the calls of the source. The calls are words filed in the database; no cut-off is given here.

[Pyruvate dehydrogenase (acetyl-transferring)] kinase isozyme 1, mitochondrial (Mus musculus), sequence (Q8BFP9 whole entry): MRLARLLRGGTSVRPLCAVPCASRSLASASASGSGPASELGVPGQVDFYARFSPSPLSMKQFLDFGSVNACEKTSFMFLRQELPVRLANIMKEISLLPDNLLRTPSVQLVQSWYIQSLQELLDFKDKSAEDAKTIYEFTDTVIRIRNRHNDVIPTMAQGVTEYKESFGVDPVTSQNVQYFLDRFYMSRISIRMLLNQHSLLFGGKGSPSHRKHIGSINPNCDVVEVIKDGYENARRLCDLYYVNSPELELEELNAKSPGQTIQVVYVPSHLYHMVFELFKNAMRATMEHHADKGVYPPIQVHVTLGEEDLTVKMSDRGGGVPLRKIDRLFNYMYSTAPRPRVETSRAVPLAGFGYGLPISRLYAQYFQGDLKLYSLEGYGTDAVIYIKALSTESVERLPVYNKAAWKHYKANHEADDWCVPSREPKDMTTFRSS
[Pyruvate dehydrogenase (acetyl-transferring)] kinase isozyme 1, mitochondrial, sequence (Q15118 whole entry): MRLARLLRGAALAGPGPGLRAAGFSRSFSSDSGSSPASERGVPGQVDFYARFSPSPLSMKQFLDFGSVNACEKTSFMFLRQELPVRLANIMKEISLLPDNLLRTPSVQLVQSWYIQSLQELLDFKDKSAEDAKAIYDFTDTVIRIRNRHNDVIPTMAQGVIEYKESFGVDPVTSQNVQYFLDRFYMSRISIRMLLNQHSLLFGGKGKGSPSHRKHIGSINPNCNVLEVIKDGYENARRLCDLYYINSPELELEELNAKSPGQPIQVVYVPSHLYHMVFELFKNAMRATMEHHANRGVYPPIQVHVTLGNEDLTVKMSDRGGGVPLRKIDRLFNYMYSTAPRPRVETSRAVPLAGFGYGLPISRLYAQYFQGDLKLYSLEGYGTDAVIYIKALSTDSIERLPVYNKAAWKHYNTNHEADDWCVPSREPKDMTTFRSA

By EC50 is commonly meant the concentration at which the effect is half-maximal. As a reminder, the IC50 is the point on the concentration scale where inhibition reaches its midpoint. On to `O=C(CCCCCNC(=O)C(Cl)Cl)Nc1ccc([As]2SCCCS2)cc1`, for which, in data set [1], the concentration for a half-maximal effect (EC50) worked out at 68 nM. In addition, the IC50 stood at 1720 nM in the data set with NB-4, 1350 nM in the data set on MOLM-13 and 1920 nM in the data set on 4T1 [9]. Moreover, the result in the data set with 4T1 [2] and in the data set with 4T1 [12] was Active. The result in the data set on COS-7 [3], in the data set on COS-7 [4], with COS-7 [7] and in the data set with COS-7 [15] was inactive. For the same compound, the inhibition entry (in data set [5]; in the data set with 4T1 [8]; in the data set on 4T1 [10]) was “Active” in each case. Further, the Activity result was “Non-Toxic” in data set [6], “Non-Toxic” in data set [11], “Dose-Dependent Effect” in the data set with 4T1 [13] and “Non-Toxic” in data set [14].

For the origin of these results see ChEMBL document CHEMBL5370584, “Reprogramming Energy Metabolism with Synthesized PDK Inhibitors Based on Dichloroacetate Derivatives and Targeted Delivery Systems for Enhanced Cancer Therapy” (J Med Chem, 2023).
